The values that follow come from patent US20260125375A1 (Pfizer Inc., priority 2022, published 2026).

The assay deals with T1, C-CBL (Homo sapiens, UniProt P22681).
T1 construct: endogenous in cells; host or cells: Jurkat HiBit-IL2 reporter cells, CBL-B knocked out by CRISPR
In words: Jurkat HiBit-IL2 assay (CBL-B KO), reporter cell line expressing C-CBL only. It counts as cell-based. To be noted: geometric mean, read-out: CBL-B KO EC50 (nM) GMean. The procedure, abridged: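 CRISPR knockout Jurkat HiBit-IL2 reporter cells (20,000/well) were preincubated 1 h with compounds (0.1% DMSO), then stimulated 4 h at 37 °C with anti-CD3 (1 μg/ml) and anti-CD28 (2 μg/ml) final. IL-2 was read by HiBiT lytic luminescence, normalized as fold over antibody-only baseline; EC50 reported as geometric mean.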

[1] abbreviates: CBL-B KO (C-CBL only), anti-CD3/anti-CD28 stimulation 4 hours, Table 16a.
[2] abbreviates: CBL-B KO (expressing C-CBL only), Table 16b (further repetition).

SMILES strings stand for the structures. Like-named read-outs stand apart in the source and are kept apart here.

As usually defined, the EC50 is the midpoint of the concentration-response curve. As to `C[C@@H](c1nc(C(F)(F)F)cc2c(-c3cccc(C4(Cc5nncn5C)COC4)c3)n[nH]c12)N1C[C@H](F)[C@@H](F)C1` (single isomer, unassigned) [Example D7], the EC50 under setting [1] turned out to be 380 nM.
With `C[C@H](c1nc(C(F)(F)F)cc2c(-c3cccc(C4(Cc5nncn5C)COC4)c3)n[nH]c12)N1C[C@H](F)[C@@H](F)C1` (single isomer, unassigned) [Example D8], the EC50 under setting [1] is 1210 nM.
On to `C[C@@H](c1nc(C(F)(F)F)cc2c(-c3cccc(C4(Cc5nncn5C)COC4)c3)n[nH]c12)N1CC[C@@H](F)C1` (single isomer, unassigned) [Example D9], for which the EC50 under setting [1] amounted to 1770 nM.
For `C[C@H](c1nc(C(F)(F)F)cc2c(-c3cccc(C4(Cc5nncn5C)COC4)c3)n[nH]c12)N1CC[C@@H](F)C1` (single isomer, unassigned) [Example D10], the EC50 under setting [1] was found to be 595 nM.
As to `C[C@H]1CN([C@@H](C)c2nc(C(F)(F)F)cc3c(-c4cccc(C5(Cc6nncn6C)COC5)c4)n[nH]c23)CCO1` (single isomer, unassigned) [Example D11], the EC50 under setting [1] turned out to be 512 nM.
The same measure, in the same setting: next, `C[C@H](c1nc(C(F)(F)F)cc2c(-c3cccc(C4(Cc5nncn5C)COC4)c3)n[nH]c12)N1CCO[C@@H](C)C1` (single isomer, unassigned) [Example D12]: 973 nM.
On the same count and under the same terms, next, `C[C@@H]1CCCN([C@@H](C)c2nc(C(F)(F)F)cc3c(-c4cccc(C5(Cc6nncn6C)COC5)c4)n[nH]c23)C1` (single isomer, unassigned) [Example D13]: 539 nM; `C[C@@H]1CCCN([C@H](C)c2nc(C(F)(F)F)cc3c(-c4cccc(C5(Cc6nncn6C)COC5)c4)n[nH]c23)C1` (single isomer, unassigned) [Example D14]: 2010 nM.
Consider `C[C@H](N[C@@H]1CCC[C@@H]1O)c1nc(C(F)(F)F)cc2c(-c3cccc([C@H](c4nncn4C)C4CCC4)c3)n[nH]c12` (single isomer, unassigned) [Example D15], for which the EC50 amounted to 20 nM under setting [1] and 11 nM under setting [2].
For the compound `C[C@@H](N[C@@H]1CCC[C@@H]1O)c1nc(C(F)(F)F)cc2c(-c3cccc([C@H](c4nncn4C)C4CCC4)c3)n[nH]c12` (single isomer, unassigned) [Example D16], under setting [1], the EC50 amounted to 188 nM.
Take `C[C@H](O)CN[C@@H](C)c1nc(C(F)(F)F)cc2c(-c3cccc([C@H](c4nncn4C)C4CCC4)c3)n[nH]c12` (single isomer, unassigned) [Example D19]: the 50% effective concentration (EC50) amounted to 132 nM under setting [1] and 157 nM under setting [2].
For `C[C@@H](N[C@H]1CC[C@@H]1O)c1nc(C(F)(F)F)cc2c(-c3cccc([C@H](c4nncn4C)C4CCC4)c3)n[nH]c12` (single isomer, unassigned) [Example D22], in that order: 79 nM and 91 nM.
Take `C[C@H](N[C@@H]1CC[C@@H]1O)c1nc(C(F)(F)F)cc2c(-c3cccc([C@H](c4nncn4C)C4CCC4)c3)n[nH]c12` (single isomer, unassigned) [Example D28]: the EC50 under setting [1] was 4 nM.
For the compound `C[C@H](NC1CC[C@H]1O)c1nc(C(F)(F)F)cc2c(-c3cccc([C@H](c4nncn4C)C4CCC4)c3)n[nH]c12` (single isomer, unassigned) [Example D30], the EC50 runs as follows: under setting [1], 43 nM; under setting [2], 52 nM.
As for `C[C@H](NC1CC(F)(F)C1)c1nc(C(F)(F)F)cc2c(-c3cccc([C@H](c4nncn4C)C4CCC4)c3)n[nH]c12` (single isomer, unassigned) [Example D90], the EC50 under setting [2] turned out to be 313 nM.
In the case of `C[C@@H](NC1CC(F)(F)C1)c1nc(C(F)(F)F)cc2c(-c3cccc([C@H](c4nncn4C)C4CCC4)c3)n[nH]c12` (single isomer, unassigned) [Example D91], the EC50 under setting [2] amounted to 238 nM.
For the compound `Cn1cnnc1[C@@H](c1cccc(-c2n[nH]c3c(CN[C@H]4CCC(F)(F)C4)nc(C(F)(F)F)cc23)c1)C1CCC1` (single isomer, unassigned) [Example G1], under setting [1], the EC50 came out at 775 nM.
As for `Cn1cnnc1[C@@H](c1cccc(-c2n[nH]c3cnc(C(F)(F)F)cc23)c1)C1CCC1` [Example A1, 3-{3-[(R)-cyclobutyl(4-methyl-4H-1,2,4-triazol-3-yl)methyl]phenyl}-5-(trifluoromethyl)-1H-pyrazolo[3,4-c]pyridine], the half-maximal effective concentration (EC50) is, setting by setting: under setting [1], more than 5280 nM; under setting [2], 4500 nM.
On to `Cn1cnnc1CC1(c2cccc(-c3n[nH]c4cnc(C(F)(F)F)cc34)c2)COC1` [Example B1, 3-(3-(3-((4-methyl-4H-1,2,4-triazol-3-yl)methyl)oxetan-3-yl)phenyl)-5-(trifluoromethyl)-1H-pyrazolo[3,4-c]pyridine], for which the EC50 under setting [1] was more than 9980 nM.
On the same count and under the same terms, next, `Cn1cnnc1CC1(c2cccc(-c3n[nH]c4ncc(C(F)(F)F)cc34)c2)COC1` [Example B3, 3-(3-{3-[(4-methyl-4H-1,2,4-triazol-3-yl)methyl]oxetan-3-yl}phenyl)-5-(trifluoromethyl)-1H-pyrazolo[3,4-b]pyridine]: 4060 nM.
Consider `Cn1cnnc1[C@@H](c1cccc(-c2n[nH]c3c(CN[C@@H]4CCC[C@@H]4O)nc(C(F)(F)F)cc23)c1)C1CCC1` [Example C1, (1S,2R)-2-({[3-{3-[(R)-cyclobutyl(4-methyl-4H-1,2,4-triazol-3-yl)methyl]phenyl}-5-(trifluoromethyl)-1H-pyrazolo[3,4-c]pyridin-7-yl]methyl}amino)cyclopentan-1-ol], for which the EC50 runs as follows: under setting [1], 275 nM; under setting [2], 584 nM.
`Cn1cnnc1[C@@H](c1cccc(-c2n[nH]c3c(CN[C@H]4CCC[C@@H]4O)nc(C(F)(F)F)cc23)c1)C1CCC1` [Example C4, (1S,2S)-2-({[3-{3-[(R)-cyclobutyl(4-methyl-4H-1,2,4-triazol-3-yl)methyl]phenyl}-5-(trifluoromethyl)-1H-pyrazolo[3,4-c]pyridin-7-yl]methyl}amino)cyclopentan-1-ol]: the EC50 under setting [1] is 1050 nM.
Turning to `C[C@H]1CN(Cc2nc(C(F)(F)F)cc3c(-c4cccc([C@H](c5nncn5C)C5CCC5)c4)n[nH]c23)CCO1` [Example C6, 3-{3-[(R)-cyclobutyl(4-methyl-4H-1,2,4-triazol-3-yl)methyl]phenyl}-7-{[(2S)-2-methylmorpholin-4-yl]methyl}-5-(trifluoromethyl)-1H-pyrazolo[3,4-c]pyridine], the EC50 under setting [1] is 807 nM.
On the same count and under the same terms, then `C[C@H]1CCCN(Cc2nc(C(F)(F)F)cc3c(-c4cccc([C@H](c5nncn5C)C5CCC5)c4)n[nH]c23)C1` [Example C7, 3-{3-[(R)-cyclobutyl(4-methyl-4H-1,2,4-triazol-3-yl)methyl]phenyl}-7-{[(3S)-3-methylpiperidin-1-yl]methyl}-5-(trifluoromethyl)-1H-pyrazolo[3,4-c]pyridine], with 519 nM; and `C[C@H](N[C@H]1CCC(F)(F)C1)c1nc(C(F)(F)F)cc2c(-c3cccc([C@H](c4nncn4C)C4CCC4)c3)n[nH]c12` [Example C8], with 44 nM.
Take `C[C@@H](N[C@H]1CCC(F)(F)C1)c1nc(C(F)(F)F)cc2c(-c3cccc([C@H](c4nncn4C)C4CCC4)c3)n[nH]c12` [Example C9]: the EC50 under setting [1] stood at 606 nM and the EC50 under setting [2] amounted to 176 nM.
Turning to `CC(NC1CCCC1)c1nc(C(F)(F)F)cc2c(-c3cccc([C@H](c4nncn4C)C4CCC4)c3)n[nH]c12` (stereo partly drawn) [Example C14, N-{(1ξ)-1-[3-{3-[(R)-cyclobutyl(4-methyl-4H-1,2,4-triazol-3-yl)methyl]phenyl}-5-(trifluoromethyl)-1H-pyrazolo[3,4-c]cyclopen-7-yl]ethyl}cyclopentanamine], the EC50 under setting [1] came to 26 nM and the EC50 under setting [2] is 17 nM.
For `C[C@@H](NC1CCC1)c1nc(C(F)(F)F)cc2c(-c3cccc(C4(Cc5nncn5C)COC4)c3)n[nH]c12` [Example C16], the EC50 under setting [1] was found to be 689 nM.
Same read-out and setting: next, `C[C@@H]1CCCN(Cc2nc(C(F)(F)F)cc3c(-c4cccc(C5(Cc6nncn6C)COC5)c4)n[nH]c23)C1` [Example C29, 7-{[(3R)-3-methylpiperidin-1-yl]methyl}-3-(3-{3-[(4-methyl-4H-1,2,4-triazol-3-yl)methyl]oxetan-3-yl}phenyl)-5-(trifluoromethyl)-1H-pyrazolo[3,4-c]pyridine]: 1320 nM.
Consider `C[C@H]1CCCN(Cc2nc(C(F)(F)F)cc3c(-c4cccc(C5(Cc6nncn6C)COC5)c4)n[nH]c23)C1` [Example C30, 7-{[(3S)-3-methylpiperidin-1-yl]methyl}-3-(3-{3-[(4-methyl-4H-1,2,4-triazol-3-yl)methyl]oxetan-3-yl}phenyl)-5-(trifluoromethyl)-1H-pyrazolo[3,4-c]pyridine], for which the EC50 under setting [1] worked out at 232 nM.
Still for that read-out and setting: then `Cn1cnnc1CC1(c2cccc(-c3n[nH]c4c(CN5CCCCC5)nc(C(F)(F)F)cc34)c2)COC1` [Example C33, 3-(3-{3-[(4-methyl-4H-1,2,4-triazol-3-yl)methyl]oxetan-3-yl}phenyl)-7-[(piperidin-1-yl)methyl]-5-(trifluoromethyl)-1H-pyrazolo[3,4-c]pyridine], with 1840 nM; and `Cn1cnnc1CC1(c2cccc(-c3n[nH]c4c(CN[C@H]5CCC(F)(F)C5)nc(C(F)(F)F)cc34)c2)COC1` [Example C38, (1S)-3,3-difluoro-N-{[3-(3-{3-[(4-methyl-4H-1,2,4-triazol-3-yl)methyl]oxetan-3-yl}phenyl)-5-(trifluoromethyl)-1H-pyrazolo[3,4-c]pyridin-7-yl]methyl}cyclopentan-1-amine], with 494 nM; and `Cn1cnnc1[C@@H](c1cccc(-c2n[nH]c3c(CN[C@H]4CCOC4)nc(C(F)(F)F)cc23)c1)C1CCC1` [Example D1, (3S)—N-{[3-{3-[(R)-cyclobutyl(4-methyl-4H-1,2,4-triazol-3-yl)methyl]phenyl}-5-(trifluoromethyl)-1H-pyrazolo[3,4-c]pyridin-7-yl]methyl}oxolan-3-amine], with 1890 nM.
